# Measured values taken from patent US20250376498A1, “FUSION PROTEINS COMPRISING AN IMPROVED GLP-1 RECEPTOR AGONIST AND USES THEREOF” (Guangzhou Innogen Pharmaceutical Group Co., Ltd., priority 2022, published 2025).
# Entries after “also recorded” stand apart in the source; their conditions may differ.
# How the values were obtained:
# [1] = tested on: SH-SY5Y neuronal cells; assay: TNF-α-induced damage in SH-SY5Y cells (Hoechst 33342 live cell staining); assay type: cell-based; details: 60 ng/ml TNF-α, 48 hours; YN-011 10, 100, 500 nM; GABA 1, 10, 100 μM; combination 100 μM GABA + 100 nM YN-011
# Description: Digest the SH-SY5Y neuronal cells in a 10 cm culture dish using 0.25% trypsin to prepare a single-cell suspension. Seed the single-cell suspension into a 24-well plate. Place the culture plate in a CO2 incubator and pre-culture overnight at 37° C. with 5% CO2 to allow the cells to adhere. Treat the cells in each well with 20, 40, 60, or 80 ng/ml TNF-α using medium containing 5% FBS at 37° C. for 48 hours. Each drug treatment is performed in three replicate wells. Add the fluorescent dye Hoechst 33342 (Beyotime) at a dilution of 1:1000 to the wells, and incubate the plate at 37° C. for 10 minutes. Remove the culture medium, gently wash twice with PBS, and immediately take the plate to a fluorescence microscope for imaging (20× magnification). Capture 10 fields of view for each cell well and count the number of blue-stained positive cells in each field of view.
# Please refer to section 8.7 for the experimental procedure, but the drug treatment in this experiment is different from that in section 8.7. In this experiment, the drug treatment is as follows: using medium containing 5% FBS, treat the cells in each well with 60 ng/ml TNF-α alone or co-treated with 10, 100, or 500 nM YN-011 at 37° C. for 48 hours. Each drug treatment is performed in three replicate wells. […]
# [2] = tested on: SH-SY5Y neuronal cells; assay: TNF-α-induced decrease in SH-SY5Y cell viability (CCK-8); assay type: cell-based; details: 60 ng/ml TNF-α, 48 hours; YN-011 10, 100, 500 nM; GABA 100 μM
# Description: SH-SY5Y neuronal cells were digested using 0.25% trypsin to prepare a single-cell suspension. The single-cell suspension was seeded in a 96-well plate at a density of 10,000 cells per well in 100 μl of medium. The plate was placed in a CO2 incubator overnight (37° C., 5% CO2) to allow cell adhesion. The medium was replaced with medium containing 10% FBS or 5% FBS, and cells were stimulated with 20, 40, 60, 80, or 100 ng/ml TNF-α for 48 hours. Each drug treatment was performed in six replicate wells. After 48 hours of drug treatment, 10 μl of CCK-8 solution was added to each well, and the plate was gently shaken to mix the reagents. The plate was then incubated in a CO2 incubator for 1-4 hours. The absorbance at 450 nm was measured using a microplate reader, and cell viability was calculated using the following formula:
# [formula] • A (treated): OD value of wells containing cells, CCK-8 solution, and drug solution • A (control): OD value of wells containing cells and CCK-8 solution without drug solution • A (blank): OD value of wells without cells
# Please refer to section 8.1 for the experimental procedure, but the drug treatment in this experiment is different from section 8.1. […]
Molecule,TNF-α-induced damage in neuronal cells (Hoechst 33342 positive cells) [1],SH-SY5Y cell viability [2]
"NCCCC(=O)O [GABA, γ-aminobutyric acid]",protective effect,significantly enhanced cell viability; also recorded: inhibiting TNF-α-induced reduction in SH-SY5Y cell viability
"YN-011: GLP-1 fusion protein of SEQ ID NO: 7: GLP-1 (A8G, G22E, R36G), linker peptide and IgG2/Fc domain (C222S, A330S, P331S) (protein) HGEGTFTSDVSSYLEEQAAKEFIAWLVKGGGSSGAPPPSGGGGSERKSCVECPPCPAPPVAGPSVFLFPPKPKDTLMISRTPEVTCVVVDVSHEDPEVQFNWYVDGVEVHNAKTKPREEQFNSTFRVVSVLTVVHQDWLNGKEYKCKVSNKGLPSSIEKTISKTKGQPREPQVYTLPPSREEMTKNQVSLTCLVKGFYPSDIAVEWESNGQPENNYKTTPPMLDSDGSFFLYSKLTVDKSRWQQGNVFSCSVMHEALHNHYTQKSLSLSPG",protective effect,significantly enhanced cell viability; also recorded: inhibiting TNF-α-induced reduction in SH-SY5Y cell viability
